For series [1], the system named is tetrodotoxin-resistant (TTXr) Nav1.8 slow sodium channels. Briefly: patch-clamp experiments on dorsal root ganglion neurons. The format is cell-based. Conditions: for modulation of the activity of TTXr Nav1.8 slow sodium channels: patch-clamp, extracellular solution Na+ 65 mM, Ca2+ 2 mM, Mg2+ 2 mM.
The nature of the next series: solubility. It counts as physicochemical.
The test system of another series is Pliss limphosarcoma. The series can be described thus: growth of transplanted Pliss limphosarcoma in rats. The format is in vivo. The settings on record: 50 mg/kg i.p., once per day, 5 times per week, 10 injections; tumor volumes day 6, 9, 13, 16 and mortality vs control; Anoceptin 1% solution. The method, then: Comenic acid (in medicinal form, referred to as “Anoceptin™”) was also tested on rats with transplanted tumors (Pliss limphosarcoma) to determine if it stimulated tumor growth (Effect of medicine Anoceptin on the growth of transplantable tumor in rats, State Oncology Institute, 2006, Saint-Petersburg, Russia). Pliss limphosarcoma was transplanted subcutaneously into 20 rats. Forty-eight hours after transplantation, the rats were randomly assigned into groups (10 rats in experimental group, and 10 in control group) and the injections were started. Both groups were injected i.p. (intraperitoneal) once per day, 5 times per week and given a total of 10 injections each. The experimental group was administered 50 mg/kg of comenic acid in each injection, while the control group was injected with 1.5 ml of physiological solution. Comenic acid was utilized in its medicinal form (“Anoceptin™”), a 1% solution with ions of proper moiety. For both groups, the size of the tumor was measured on day 6, 9, 13 and 16 of the experiment, and the volumes were calculated. […] The data was determined to be statistically significant, with p<0.05.

The next series concerns male rats of Wistar line. Briefly: "open field" test, motor activity of rats (sedative effect). It counts as in vivo, rat. The settings on record: for Motor activity after the preparation's introduction (n): enteral, squares crossed within 5 minutes; for Lowering motor activity relative to the control (%): vs saline; for Lowering motor activity relative to the Valerian extract (%): vs same dose of Valerian extract. On the procedure:
The sedative effect was measured by the change in motor activity of male rats of Wistar line with the mass of 0.20-0.23 kg in “the open field” test [Guiding and Method Materials in Experimental and Clinical Study of New Drugs. Part 2. M., 1980, pp. 126-133].
Male rats were subjected to the enteral introduction of 0.5 ml of saline solution. Then, the animals were divided into two groups. The rats in the first group were tested in “the open field” 60 minutes after the solution's introduction. The rats in the second group were tested 90 minutes after the introduction. The test consisted of the rat being placed in the center of “the open field”, and then the number of squares of “the open field” that the rat crosses within 5 minutes is counted (an estimation of motor activity).
Valerian extract was steamed until it became dry. Then, the dry remains were dissolved in saline in the required dosage (see table 1 and rated in mg/kg of a rat's body weight). The solution obtained was introduced into rats in the same way as for control. The testing of rats in “the open field” was also carried out as described for control.
Comenic acid was dissolved in saline in the desired dosages (see table 1 below). The solution's pH was adjusted to equal 6.5-6.8 using concentrated NaOH solution. Comenic acid was introduced into the rats in the same way as in control. The testing of rats in “the open field” was carried out as described for control group as well.

In another series the test system is Ehrlich carcinoma. Briefly: growth of transplanted Ehrlich carcinoma in rats. It counts as in vivo. The settings on record: 50 mg/kg i.p., once per day, 5 times per week, 10 injections; tumor volumes day 13-44 and mortality vs control; Anoceptin 1% solution. On the procedure: Comenic acid (in medicinal form, referred to as “Anoceptin™”) was also tested on rats with transplanted tumors (Ehrlich carcinoma) to determine if it stimulated tumor growth (Effect of medicine Anoceptin on the growth of transplantable tumor, State Oncology Institute, 2006, Saint-Petersburg, Russia). Ehrlich carcinoma was transplanted subcutaneously into 20 rats. Forty-eight hours after transplantation, the rats were randomly assigned into groups (10 rats in experimental group, and 10 in control group) and the injections were started. Both groups were injected i.p. (intraperitoneal) once per day, 5 times per week and given a total of 10 injections each. The experimental group was administered 50 mg/kg of comenic acid in each injection, while each in the control group was injected with 0.125 ml of physiological solution. Comenic acid was utilized in its medicinal form (“Anoceptin™”), a 1% solution with ions of proper moiety. For both groups, the size of the tumor was measured on day 13, 16, 20, 23, 27, 30, 37 and 44 of the experiment, and the volumes were calculated. […] The data was determined to be statistically significant, with p<0.05.

The subject of series [2] is animals. Briefly: continued daily administration to animals (sedative effect, dependency). It counts as in vivo. On the procedure: (§1) One of the preferred compounds of the invention is comenic acid, also known as 5-hydroxy-4-oxo-4H-pyran-2-carbon acid, as well as 5-hydroxy-gamma-pyrone-2-carboxylic acid. […] The effect is long lasting, up to 24 hours after administration. […] The acid can be administered in a number of pharmaceutically acceptable ways by mixing it with known and biologically acceptable carriers. Administration methods include all parenteral modes, including injection (intravenously, subcutaneously, intramuscularly or intraperitoneal), transdermally, transmucosally, etc. […] This duration compares quite favorably to a typical drug abuse treatment cycle of 3 to 6 months using substitution methods such as methadone.
The effect from each administration lasts up to 24 hours.

Series [3] relates to animals. The series can be described thus: treatment of narcotic dependency / withdrawal syndrome in animals. The format is in vivo. The settings on record: pharmacologically effective dose. On the procedure: as §1
It is intended that the selected gamma-pyrones as described in the proceeding section be administered as a substitute for the abused drug. Typically, this will involve administration of a therapeutically effective amount of a composition containing the compounds of the invention at least once every twenty-four hours. […] The preferred dosage range is from about 0.05 to about 0.5 mg per kilogram of body weight per day. Such daily dosage can be achieved in a single application, multiple applications or using a continuous release application.

The test system of series [4] is opioid (or opioid-like) receptor. Briefly: patch-clamp experiments, receptor binding (naltrexone block, affinity order). Conditions: patch-clamp results, decreasing affinity. The format is cell-based. From the text:
The physiological effect on the Nav1.8 channel of the following closely related gamma-pyrone derivatives (see FIG. 1) was investigated: I) comenic acid (5-hydroxy-gamma-pyrone-2-carboxylic acid), II) meconic acid (3-hydroxy-gamma-pyrone-2,6-dicarboxylic acid, III) 5-methoxy-gamma-pyrone-2-carboxylic acid, IV) kojic acid (2-hydroxymethyl-5-hydroxy-gamma-pyrone) and V) chelidonic acid (gamma-pyrone-2,6-dicarboxylic acid). […] Clinical Pathophysiology (Russian), in press].
Thus, according to the model of the mechanism of ligand receptor binding of said opioid (or opioid like) receptor, the prerequisites for gamma-pyrones receptor activity are 1) a carboxy group in position 2 of the pyranone ring, 2) a carbonyl group in position 4 of the pyranone ring, and 3) a substituent in position 5 which can participate in Ca^2+ chelation. […] Clinical Pathophysiology (Russian), in press]. Based on these observations, several conclusions concerning the potential effect of substituents in positions 3, 5 and 6 on the stability of ligand-receptor complex can be drawn. The presence of a carboxy group in position 6 (meconic acid, II) increases ligand affinity to the receptor as compared with comenic acid (I). It may be proposed that the carboxy group in position 6 is involved in additional interaction with one or several polar functional groups of the receptor by formation of intermolecular hydrogen or salt bonds. Based on this, introduction of a hydrophobic substituent in position 6 should reduce the affinity of gamma-pyrone derivatives to said opioid (or opioid-like) receptor. […] An increase in the size of the alkoxy group in position 5 will also lead to a further decrease or even total loss of physiological activity of the gamma-pyrone molecule. Bulky substituents in positions 3, 5 and 6 will decrease the affinity of gamma-pyrones to said receptor, since they will less readily be accommodated in the binding pocket.

Setting [5] is: experiments repeated with the same rats.

“Also recorded” adds a separate entry of the source.

Regarding `O=C(O)c1cc(=O)c(O)co1` [Comenic acid, 5-hydroxy-gamma-pyrone-2-carboxylic acid], in series [1] (listed as I), the “modulation of the activity of TTXr Nav1.8 slow sodium channels” value (from here on “modulation”) is reported as “modulated the activity; also recorded: shown to modulate the functioning”. Further, the “solubility in non-polar organic solvents” value in “solubility” was “practically insoluble”. The “solubility in water and alcohol” value in “solubility” is “moderately water- and alcohol-soluble”. Also, the “effect on the growth of transplantable tumors of Pliss limphosarcoma” value in the series with Pliss limphosarcoma was “no effect (no stimulation and no inhibition)”. Also, the “Motor activity after the preparation's introduction (n)” value with male rats of Wistar line (1 mg/kg of body weight, 60 min) was 43.9 ± 6.8 n; in the series on male rats of Wistar line (1 mg/kg of body weight, 90 min) it was 51.2 ± 8.3 n; in the series on male rats of Wistar line (10 mg/kg of body weight, 60 min), 37.6 ± 5.9 n; with male rats of Wistar line (10 mg/kg of body weight, 90 min), 41.6 ± 6.8 n; in the series on male rats of Wistar line (50 mg/kg of body weight, 60 min), 18.7 ± 3.3 n; in the series on male rats of Wistar line (50 mg/kg of body weight, 90 min) it was 15.2 ± 3.1 n. In addition, the “Motor activity after the preparation's introduction (n)” value with male rats of Wistar line (100 mg/kg of body weight, 60 min) amounted to 13.4 ± 4.8 n; in the series with male rats of Wistar line (100 mg/kg of body weight, 90 min) it was 10.3 ± 2.8 n. Moreover, the “Lowering motor activity relative to the control (%)” value with male rats of Wistar line (1 mg/kg, 60 min) is 13%; in the series on male rats of Wistar line (1 mg/kg, 90 min) it was −8%; with male rats of Wistar line (10 mg/kg, 60 min), 25%; with male rats of Wistar line (10 mg/kg, 90 min) it was 12.5%; with male rats of Wistar line (50 mg/kg, 60 min) it was 63%; with male rats of Wistar line (50 mg/kg, 90 min), 68%. The “Lowering motor activity relative to the control (%)” value in the series on male rats of Wistar line (100 mg/kg, 60 min) came to 73%; in the series with male rats of Wistar line (100 mg/kg, 90 min) it was 78%. The “Lowering motor activity relative to the Valerian extract (%)” value in the series with male rats of Wistar line (1 mg/kg, 60 min) is 19%; with male rats of Wistar line (1 mg/kg, 90 min), −21%; in the series on male rats of Wistar line (10 mg/kg, 60 min) it was 22%; in the series with male rats of Wistar line (10 mg/kg, 90 min), −9%; in the series on male rats of Wistar line (50 mg/kg, 60 min) it was 52%; in the series with male rats of Wistar line (50 mg/kg, 90 min), 52%. For the same compound, the “Lowering motor activity relative to the Valerian extract (%)” value amounted to 67% in the series with male rats of Wistar line (100 mg/kg, 60 min) and 53% in the series on male rats of Wistar line (100 mg/kg, 90 min). Moreover, the development of tolerance entry in the series with male rats of Wistar line (setting [5]) is listed as “no development of tolerance”. The drug dependency result in the series on male rats of Wistar line (setting [5]) was “no indication of drug dependency”. Also, the “other side effects of the administration” value with male rats of Wistar line (setting [5]) is “no other side effects”. Besides, the “sedative effect compared with that of valerian extract” value in the series on male rats of Wistar line (rats, open field, 50 and 100 mg/kg) is recorded as “twice”. Besides, the “effect on the growth of transplantable tumors of Ehrlich carcinoma” value in the series with Ehrlich carcinoma was “no effect (no stimulation and no inhibition)”. The “drug dependency after continued daily use” value in the series with animals [2] (50 days of continued daily use) is recorded as “without causing drug dependency”. In the series on animals [2] (each administration), the “duration of the effect after administration” value is recorded as “up to 24 hours”. Also, in the series on animals [3], the “treatment of narcotic dependency in animals” value is on record as “effective treatment for the cure of narcotic dependency”. Moreover, the “order of affinity of the test molecule to the receptor” value (“order” for short) in series [4] is on record as “II>I>III”.

Take `O=C(O)c1cc(=O)c(O)c(C(=O)O)o1` [II, 3-hydroxy-gamma-pyrone-2,6-dicarboxylic acid]: the “modulation” value in series [1] was “modulated the activity”. For the same compound, the “order” value in series [4] is given as “II>I>III”.

For the compound `COc1coc(C(=O)O)cc1=O` [III, 5-methoxy-gamma-pyrone-2-carboxylic acid], in series [1] (patch clamp, dorsal root ganglion neurons), the “effect on the Nav1.8 slow sodium channel compared with comenic acid (I)” value is on record as “decrease in activity”. Also, in series [1], the “modulation” value is recorded as “modulated the activity; also recorded: shown to modulate the functioning”. Further, in “solubility”, the “solubility in non-polar organic solvents” value is recorded as “practically insoluble”; the “solubility in water and alcohol” value was “moderately water- and alcohol-soluble”. Further, in series [4], the “order” value was “II>I>III”.

In the case of `O=c1cc(CO)occ1O` [IV, 2-hydroxymethyl-5-hydroxy-gamma-pyrone, reference compound], the “modulation” value in series [1] is recorded as “did not exhibit such effect; also recorded: did not influence the functioning”.

As for `O=C(O)c1cc(=O)cc(C(=O)O)o1` [V, gamma-pyrone-2,6-dicarboxylic acid, reference compound], the “modulation” value in series [1] was “did not exhibit such effect; also recorded: did not influence the functioning”.

Values taken from patent publication US8476314B2, “Substance with sedative effect” (Technology Commercialization Corp, priority 2002, dated 2013).
